Source: patent publication US20240269139A1, “COMPOUNDS FOR TARGETED PROTEIN DEGRADATION OF KINASES” (DANA-FARBER CANCER INSTITUTE, INC., priority 2020, published 2024)
Where two headings read alike, the source gives them in different places.

Key:
Assay type in all cases: cell-based
[1] = molecular target: T1, protein kinases (human kinome) (Homo sapiens, UniProt P33981); settings: for logFC TTK: Accession P33981
T1 sequence (P33981 1-857): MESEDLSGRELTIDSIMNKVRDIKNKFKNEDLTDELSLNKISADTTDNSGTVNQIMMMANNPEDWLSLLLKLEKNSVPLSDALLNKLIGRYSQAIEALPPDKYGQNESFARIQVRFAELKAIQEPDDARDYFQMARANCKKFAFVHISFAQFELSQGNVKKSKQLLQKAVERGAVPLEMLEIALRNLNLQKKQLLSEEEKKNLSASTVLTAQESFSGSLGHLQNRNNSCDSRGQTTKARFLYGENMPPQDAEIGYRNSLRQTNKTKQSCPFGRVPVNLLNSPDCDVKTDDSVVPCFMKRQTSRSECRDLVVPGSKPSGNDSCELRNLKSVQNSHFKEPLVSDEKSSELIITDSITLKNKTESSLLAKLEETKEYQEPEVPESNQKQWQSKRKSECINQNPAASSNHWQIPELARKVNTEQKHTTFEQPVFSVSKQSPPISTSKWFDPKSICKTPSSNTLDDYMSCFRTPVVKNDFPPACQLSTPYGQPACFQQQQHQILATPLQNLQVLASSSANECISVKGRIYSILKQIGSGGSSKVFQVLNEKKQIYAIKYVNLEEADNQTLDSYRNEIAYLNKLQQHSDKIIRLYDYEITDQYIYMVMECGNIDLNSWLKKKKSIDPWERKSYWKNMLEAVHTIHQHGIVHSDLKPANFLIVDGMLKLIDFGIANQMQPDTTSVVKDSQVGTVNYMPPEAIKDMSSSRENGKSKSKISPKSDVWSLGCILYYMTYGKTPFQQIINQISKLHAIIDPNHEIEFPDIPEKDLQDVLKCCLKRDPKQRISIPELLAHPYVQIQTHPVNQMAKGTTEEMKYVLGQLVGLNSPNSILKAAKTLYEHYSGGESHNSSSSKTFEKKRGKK

[2] = molecular target: protein kinases (human kinome) (Homo sapiens, UniProt P51812); settings: RPS6KA3 (P51812)
protein kinases (human kinome) (Homo sapiens, UniProt P51812), sequence (P51812 whole entry): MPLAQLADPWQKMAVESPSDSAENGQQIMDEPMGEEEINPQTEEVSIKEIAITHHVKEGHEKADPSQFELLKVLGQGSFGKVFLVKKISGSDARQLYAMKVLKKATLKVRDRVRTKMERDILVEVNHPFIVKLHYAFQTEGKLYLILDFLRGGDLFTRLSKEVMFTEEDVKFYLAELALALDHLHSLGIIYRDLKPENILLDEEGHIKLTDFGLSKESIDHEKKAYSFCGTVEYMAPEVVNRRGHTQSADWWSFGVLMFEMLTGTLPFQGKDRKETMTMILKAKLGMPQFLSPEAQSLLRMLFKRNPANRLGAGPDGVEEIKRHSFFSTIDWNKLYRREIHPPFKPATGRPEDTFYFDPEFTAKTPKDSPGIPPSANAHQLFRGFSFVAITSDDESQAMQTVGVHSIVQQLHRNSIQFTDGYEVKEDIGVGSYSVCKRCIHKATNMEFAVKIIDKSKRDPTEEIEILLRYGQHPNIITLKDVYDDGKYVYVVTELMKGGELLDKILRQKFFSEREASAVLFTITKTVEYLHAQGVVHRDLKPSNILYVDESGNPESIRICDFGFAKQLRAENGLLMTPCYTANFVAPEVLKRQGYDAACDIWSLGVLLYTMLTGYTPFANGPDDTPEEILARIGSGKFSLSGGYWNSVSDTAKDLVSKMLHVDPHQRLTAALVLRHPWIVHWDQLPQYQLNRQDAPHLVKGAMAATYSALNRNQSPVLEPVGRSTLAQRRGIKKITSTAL

[3] = molecular target: protein kinases (human kinome) (Homo sapiens, UniProt P53667); settings: LIMK1 (P53667-1)
protein kinases (human kinome) (Homo sapiens, UniProt P53667), sequence (P53667 whole entry): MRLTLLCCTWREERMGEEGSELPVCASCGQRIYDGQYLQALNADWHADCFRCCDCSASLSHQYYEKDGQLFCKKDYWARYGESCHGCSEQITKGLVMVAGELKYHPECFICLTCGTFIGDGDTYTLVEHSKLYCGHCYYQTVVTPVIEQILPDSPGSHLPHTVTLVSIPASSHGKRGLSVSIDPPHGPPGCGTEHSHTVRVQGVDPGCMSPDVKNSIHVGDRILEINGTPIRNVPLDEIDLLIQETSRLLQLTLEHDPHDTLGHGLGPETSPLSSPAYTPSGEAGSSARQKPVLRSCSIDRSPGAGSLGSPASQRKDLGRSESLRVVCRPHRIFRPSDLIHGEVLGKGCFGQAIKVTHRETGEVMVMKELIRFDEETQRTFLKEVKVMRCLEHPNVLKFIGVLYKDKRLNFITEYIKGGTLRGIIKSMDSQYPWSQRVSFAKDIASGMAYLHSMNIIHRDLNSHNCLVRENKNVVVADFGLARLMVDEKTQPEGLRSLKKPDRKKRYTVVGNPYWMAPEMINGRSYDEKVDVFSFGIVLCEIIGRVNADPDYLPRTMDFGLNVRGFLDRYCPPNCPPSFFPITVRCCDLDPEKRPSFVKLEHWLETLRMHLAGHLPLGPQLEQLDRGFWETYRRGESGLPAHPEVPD

[4] = molecular target: T2, protein kinases (human kinome) (Homo sapiens, UniProt Q12851); settings: for logFC MAP4K2 (Q12851): direction down; for logFC: MAP4K2 (Q12851)
T2 sequence (Q12851 1-820): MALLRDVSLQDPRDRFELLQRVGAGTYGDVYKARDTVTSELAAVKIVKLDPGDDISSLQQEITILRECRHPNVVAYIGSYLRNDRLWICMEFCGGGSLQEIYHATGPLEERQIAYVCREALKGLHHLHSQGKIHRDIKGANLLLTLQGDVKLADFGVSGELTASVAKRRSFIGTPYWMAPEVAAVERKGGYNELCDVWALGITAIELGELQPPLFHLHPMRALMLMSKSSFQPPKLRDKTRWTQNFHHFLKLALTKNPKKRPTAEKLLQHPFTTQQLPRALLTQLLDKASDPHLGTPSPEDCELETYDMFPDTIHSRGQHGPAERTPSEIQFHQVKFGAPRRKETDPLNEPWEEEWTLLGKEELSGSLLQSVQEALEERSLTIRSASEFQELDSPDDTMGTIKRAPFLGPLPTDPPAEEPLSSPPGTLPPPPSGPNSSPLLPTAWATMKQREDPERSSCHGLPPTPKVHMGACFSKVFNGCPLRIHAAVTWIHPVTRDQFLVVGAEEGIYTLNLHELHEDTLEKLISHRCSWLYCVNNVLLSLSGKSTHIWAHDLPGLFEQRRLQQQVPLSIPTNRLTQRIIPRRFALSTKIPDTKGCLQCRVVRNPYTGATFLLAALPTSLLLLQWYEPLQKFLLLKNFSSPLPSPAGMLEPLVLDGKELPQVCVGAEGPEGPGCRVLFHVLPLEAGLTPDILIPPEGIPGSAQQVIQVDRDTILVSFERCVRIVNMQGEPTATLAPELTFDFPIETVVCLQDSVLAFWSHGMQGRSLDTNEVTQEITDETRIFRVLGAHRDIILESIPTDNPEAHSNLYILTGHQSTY

[5] = molecular target: protein kinases (human kinome) (Homo sapiens, UniProt Q00537); settings: experiment wp146; for logFC of CDK17: Accession Q00537; for logFC CDK17 (Q00537): direction of change down
protein kinases (human kinome) (Homo sapiens, UniProt Q00537), sequence (Q00537 whole entry): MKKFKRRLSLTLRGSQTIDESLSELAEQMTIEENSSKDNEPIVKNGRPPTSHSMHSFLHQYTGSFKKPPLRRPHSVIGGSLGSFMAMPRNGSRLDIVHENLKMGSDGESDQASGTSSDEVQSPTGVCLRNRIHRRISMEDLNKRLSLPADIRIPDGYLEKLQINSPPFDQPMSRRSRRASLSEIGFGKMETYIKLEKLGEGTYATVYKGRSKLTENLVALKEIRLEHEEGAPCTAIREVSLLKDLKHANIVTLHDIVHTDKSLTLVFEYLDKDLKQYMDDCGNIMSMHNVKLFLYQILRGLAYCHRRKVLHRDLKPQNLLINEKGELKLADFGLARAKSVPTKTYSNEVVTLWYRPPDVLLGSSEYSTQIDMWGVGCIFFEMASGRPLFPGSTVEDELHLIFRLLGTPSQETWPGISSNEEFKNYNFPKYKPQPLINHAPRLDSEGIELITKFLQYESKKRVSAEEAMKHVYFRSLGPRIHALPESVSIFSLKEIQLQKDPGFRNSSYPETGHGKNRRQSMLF

[6] = experiment wp146, direction down

For `Cc1ccc(NC(=O)c2cccc(C(F)(F)F)c2)cc1N1Cc2cnc(Nc3ccc(N4CCN(Cc5cn(CCCCCOc6cccc7c6C(=O)N(C6CCC(=O)NC6=O)C7=O)nn5)CC4)nc3)nc2N(C)C1=O` (stereo not shown) [DB0646, N-(3-(7-((6-(4-((1-(5-((2-(2,6-Dioxopiperidin-3-yl)-1,3-dioxoisoindolin-4-yl)oxy)pentyl)-1H-1,2,3-triazol-4-yl)methyl)piperazin-1-v)pyridin-3-yl)amino)-1-methyl-2-oxo-1,4-dihydropyrimido[4,5-d]pyrimidin-3(2H)-yl)-4-methylphenyl)-3-(trifluoromethyl)benzamide], the “logFC TTK” value ([1]; experiment wp045) was −0.5757, the “logFC TTK” value ([1]; experiment wp107) was −0.372 and the “logFC TTK” value ([1]; experiment wp117) was −0.4267. For the same molecule, the “logFC TTK” value ([1]; experiment wp152) was −0.5131, the “logFC TTK” value ([1]; experiment wp160, 4 hr) was −0.513 and the “logFC TTK” value ([1]; experiment wp160, 8 hr) was −0.7057. For the same molecule, the “logFC TTK (P33981)” value ([1]; experiment wp045) was −0.5757, the “logFC TTK (P33981)” value ([1]; experiment wp107) was −0.372 and the “logFC TTK (P33981)” value ([1]; experiment wp117) was −0.4267. The “logFC TTK (P33981)” value ([1]; experiment wp152) was −0.5131, the “logFC TTK (P33981)” value ([1]; experiment wp160, 4 hr) was −0.513 and the “logFC TTK (P33981)” value ([1]; experiment wp160, 8 hr) was −0.7057. The logFC ([2]; experiment wp160, 8 hr) was −0.3332, the logFC ([2]; experiment wp160, 8 hr, direction down) was −0.3332 and the “logFC LIMK1” value ([3]; direction down, experiment wp045) was −0.5293. For the same molecule, the “logFC LIMK1” value ([3]; direction down, experiment wp103) was −1.497, the “logFC LIMK1” value ([3]; direction down, experiment wp105) was −0.5641 and the “logFC LIMK1” value ([3]; direction down, experiment wp107) was −0.9768. For the same molecule, the “logFC LIMK1” value ([3]; direction down, experiment wp117) was −1.412, the “logFC LIMK1” value ([3]; direction down, experiment wp160, 2 hr) was −0.7376 and the “logFC LIMK1” value ([3]; direction down, experiment wp160, 4 hr) was −1.563. For the same molecule, the “logFC LIMK1” value ([3]; direction down, experiment wp160, 8 hr) was −2.36, the “logFC LIMK1” value ([3]; direction down, experiment wp172) was −1.32 and the “logFC LIMK1” value ([3]; experiment wp045, down) was −0.5293. For the same molecule, the “logFC LIMK1” value ([3]; experiment wp103, down) was −1.497, the “logFC LIMK1” value ([3]; experiment wp105, down) was −0.5641 and the “logFC LIMK1” value ([3]; experiment wp107, down) was −0.9768. The “logFC LIMK1” value ([3]; experiment wp117, down) was −1.412, the “logFC LIMK1” value ([3]; experiment wp160, 2 hr, down) was −0.7376 and the “logFC LIMK1” value ([3]; experiment wp160, 4 hr, down) was −1.563. For the same molecule, the “logFC LIMK1” value ([3]; experiment wp160, 8 hr, down) was −2.36, the “logFC LIMK1” value ([3]; experiment wp172, down) was −1.32 and the “logFC MAP4K2 (Q12851)” value ([4]; Experiment wp045) was −0.7569. The “logFC MAP4K2 (Q12851)” value ([4]; Experiment wp103) was −0.4625, the “logFC MAP4K2 (Q12851)” value ([4]; Experiment wp107) was −0.6245 and the “logFC MAP4K2 (Q12851)” value ([4]; Experiment wp117) was −0.5616. The “logFC MAP4K2 (Q12851)” value ([4]; Experiment wp152) was −0.7981, the “logFC MAP4K2 (Q12851)” value ([4]; Experiment wp160, 4 hr) was −0.6132 and the “logFC MAP4K2 (Q12851)” value ([4]; Experiment wp160, 8 hr) was −1.155. It also gave a logFC ([4]; experiment wp045) of −0.7569, a logFC ([4]; experiment wp103) of −0.4625 and a logFC ([4]; experiment wp107) of −0.6245. For the same molecule, the logFC ([4]; experiment wp117) was −0.5616, the logFC ([4]; experiment wp152) was −0.7981 and the logFC ([4]; experiment wp160, 4 hr) was −0.6132. It also gave a logFC ([4]; experiment wp160, 8 hr) of −1.155.

`NC(=O)c1c(F)cccc1Nc1nc(Nc2ccc(S(=O)(=O)NCCOCCOCCOCCOCCNc3cccc4c3C(=O)N(C3CCC(=O)NC3=O)C4=O)cc2)ncc1Br` (stereo not shown) [TMX.02.138] was tested, and the “logFC TTK” value ([1]; experiment wp146) was −0.6178, the “logFC TTK (P33981)” value ([1]; experiment wp146) was −0.6178 and the logFC ([2]; experiment wp146) was −0.4023. For the same molecule, the logFC [2, 6] was −0.4023, the “logFC of CDK17” value [5] was −1.361 and the “logFC CDK17 (Q00537)” value [5] was −1.361.

For `Cc1cc(Nc2ncc(Br)c(Nc3cccc(F)c3C(N)=O)n2)ccc1S(=O)(=O)NCCOCCOCCOCCOCCNc1cccc2c1C(=O)N(C1CCC(=O)NC1=O)C2=O` (stereo not shown) [TMX.02.174], the “logFC TTK” value ([1]; experiment wp146) was −0.7225, the “logFC TTK (P33981)” value ([1]; experiment wp146) was −0.7225 and the logFC ([2]; experiment wp146) was −0.4312. For the same molecule, the logFC [2, 6] was −0.4312, the “logFC of CDK17” value [5] was −1.42 and the “logFC CDK17 (Q00537)” value [5] was −1.42.

In the case of `Cc1ccc(NC(=O)c2cccc(C(F)(F)F)c2)cc1N1Cc2cnc(Nc3ccc(N4CCN(CCCCC(=O)N[C@H](C(=O)N5C[C@H](O)C[C@H]5C(=O)N[C@@H](C)c5ccc(-c6scnc6C)cc5)C(C)(C)C)CC4)nc3)nc2N(C)C1=O` [DB1113], the logFC ([2]; experiment wp168) is reported as −0.5079, the logFC ([2]; experiment wp168, direction down) is reported as −0.5079 and the “logFC LIMK1” value ([3]; direction down, experiment wp168) is reported as −1.144. For the same molecule, the “logFC LIMK1” value ([3]; experiment wp168, down) was −1.144, the “logFC MAP4K2 (Q12851)” value ([4]; Experiment wp168) was −2.432 and the logFC ([4]; experiment wp168) was −2.432.
